The results in this text go back to patent US11370846B2, “Compositions and methods to regulate Renalase in the treatment of cancer” (Yale University, priority 2014, dated 2022).

For assay [1], the system named is WT mice. Nature of the assay: Renal ischemia and reperfusion in WT mice with renalase peptide RP-H220. Format: in vivo, mouse. As to conditions: 30 minutes of renal ischemia and reperfusion. The protocol:
FIG. 3 is a chart showing that ERK or AKT inhibition abrogates protective effect of renalase peptide: WT mice subjected to sham surgery or to 30 minutes of renal ischemia and reperfusion; RP-[…] or vehicle (saline) injected 10 minutes before renal ischemia. ERK inhibitor PD98059 or the PI3K/AKT inhibitor wortmannin abrogated RP-[…]'s protective effect.

Assay [2] relates to MiaPaCa2 cell. The note with it: pretreatment, MiaPaCa2, WST-1, 72 hrs.
Method: FIG. 24B is a chart depicting cell viability relative to control: MiaPaCa2 cell serum starved and then treated with BSA (30 μg/ml) or rRNLS (30 μg/ml), with and without pretreatment with MEK1 inhibitor U0126, and cell viability measured 72 hrs later using the WST-1 assay; n=6, * indicates p<0.005.
For some studies, cell viability was determined using the WST-1 reagent (Roche Diagnostics, Indianapolis, Ind., USA) as previously described (Wang et al., 2014 Journal of the American Society of Nephrology. DOI:10.1681/asn.2013060665).

Molecules are shown by their SMILES.

With `COc1cccc(-c2cc(=O)c3ccccc3o2)c1N` [PD98059], in assay [1], the “effect on RP-H220's protective effect” value is on record as “abrogated RP-H220's protective effect”.

Consider `N#CC(=C(/N)Sc1ccccc1N)/C(C#N)=C(\N)Sc1ccccc1N` [U0126], for which the “effect on rRNLS' protective effect” value in assay [2] was “abrogated rRNLS' protective effect”.
